Data on one molecule can be found in patent US12233164B2, “Drug delivery composition and method of fabrication” (DIGNITY HEALTH, priority 2017, dated 2025).

Where only a bound is given, the exact number is not on record here.

Data set [1] concerns orthotopic GL261-LucNeo tumors. The data set is described as follows: Treatment efficacy in mice bearing orthotopic GL261 tumors (bioluminescence tumor growth, survival). Format: in vivo, C57BL/6 albino mice. The settings on record: free drug study: 10 mg/kg IP, days 11, 12, 18, 19, n=5. How it is done: Tumor induction Orthotopic GL261-LucNeo tumors were induced in C57BL/6 albino mice (Harlan Laboratories, Indianass, IN, USA) as previously reported. Briefly, mice were anesthetized with an intraperitoneal injection of ketamine/xylazine (100/10 mg/kg) and mounted in a stereotaxic frame (Kopf Instruments, Tujunga, CA, USA) on top of an infrared heating pad to maintain animal temperature. The animal's head was shaved and sterilized with three alternating passes each of betadine and ethanol. A 1 cm incision was made over midline, and a burr hole was drilled 2 mm lateral, 0.1 mm posterior of bregma. A hamiltion syringe (29 gauge needle) containing 75 k GL261-LucNeo cells in 2 μl DMEM was inserted into the hole to a depth of 2.8 mm and the cells were injected over 2 min. The needle was left in place for 1 min to reduce backflow before the wound was closed with staples. All animals received a subcutaneous (SQ) injection of Buprenorphine SR prior to surgery, and ibuprofen was provided in their water ad lib for 1 week for pain. […]
Tumor treatment Quisinostat-loaded nanoparticles were tested in vivo in mice bearing orthotopic GL261 tumors. […] Treatment efficacy was measured by tumor growth and median survival. Mice were monitored daily and euthanized at the sign of symptoms (lack of grooming, abnormal gait, hunched posture, etc.) or greater than 15% weight loss. […]

The conditions of data set [2]: solubilized with hydroxy-propyl-β-cyclodextrin and/or mannitol; IP or SQ injection; cited from earlier work.
Data set [3] concerns GL261 murine glioma cells. The data set is described as follows: In vitro nanoparticle efficacy, CellTiter-Glo cell viability. It is filed as cell-based. To be noted: Mus musculus, 72 hours, read-out: IC50, growth inhibition. How it is done: Cell Culture GL261-LucNeo cells were generated by retroviral transduction of parent GL261 cells. The LucNeo construct (obtained from AndrewKung laboratory, Dana-Farber Cancer Institute) is described in Rubin et al.. Cells were maintained under normal adherent culture conditions supplemented with G-418 as a selection pressure. Cells were grown in T25 flasks in DMEM containing glucose, L-glutamine and 10% FBS at 37° C. and 5% CO2. 0.25% trypsin-EDTA was applied to collect cells, and a Cellometer mini (Nexcelom Bioscience, Lawrence, MA USA) was used to count cells prior to all in vitro and in vivo experiments.
In vitro Nanoparticle Efficacy GL261 cells were seeded in 96-well flat, white walled, clear bottom plates at a density of 3 k cells/well in 100 μl media and allowed to attach for 4 hours prior to adding treatments. Each plate was treated with 10 μl/well of 19 serial dilutions (1:2) ranging from 10 to 0 μM in PBS of either free drug or nanoparticles. After 72 hours, cell viability was assessed using CellTiter-Glo, and an IC50 value was calculated using GraphPad Prism (San Diego, CA USA) by a nonlinear fit of the log (inhibitor) vs. response function.

The nature of data set [4]: Controlled release of quisinostat from dialysis cassette into PBS. It is filed as physicochemical. To be noted: 37° C., 3.5k MWCO dialysis cassette. The method, then: Controlled Release Quisinostat release from nanoparticles was determined using a protocol adapted from Wang et al.. Nanoparticles were diluted to 20 mg/ml in PBS (pH 7) and 400 μl was transferred to a 3.5 k MWCO Slide-A-Lyzer Dialysis cassette (Thermo Fisher Scientific, Waltham, MA USA) in triplicate. Each cassette was immersed in 2 l PBS (pH 7, replaced at each time point) at 37° C. with gentle stirring (100 rpm). At each time point, 30 μl nanoparticles was removed from the cassette and dissolved in 150 μl DMSO. 60 μl dissolved nanoparticles was added in triplicate to a clear, flat bottom, 96-well plate, and the amount of drug remaining was quantified by absorbance as described above. A free quisinostat control at the equivalent concentration was included to measure quisinostat movement across the membrane using the same protocol.

In turn, `Cn1cc(CNCC2CCN(c3ncc(C(=O)NO)cn3)CC2)c2ccccc21` [quisinostat, Quisinostat] yielded a tumor doubling time in data set [1] (saline 2.4 days) of 2.4 days. Further, in data set [1] (saline 22 days), the median survival is on record as 19 days. In addition, the maximum tolerated dose in data set [2] is given as 35-70 mg/kg/week. For the same molecule, the IC50 in data set [3] turned out to be 0.024 µM. Further, the “time to complete quisinostat release” value in data set [4] was at most 4 h.
